Legend:
[1] = aqueous solubility of the polymorphic form; assay type: physicochemical; conditions: Form A as prepared by the procedures of the '479 patent
[2] = bioavailability of the polymorphic form; conditions: Form A as prepared by the procedures of the '479 patent
[3] = DSC thermogram of combined Forms A, B and C (melting points compared, solubility inferred); assay type: physicochemical; conditions: 10° C. per minute, nitrogen purge, FIG. 8
Method: DSC data were generated using a Mettler-Toledo DSC 821^e (Columbus, Ohio) with a Julabo FT900 intercooler chiller (Julabo Company; Allentown, Pa.). In general, samples were analyzed in a vented, sealed aluminum pan. Because the endothermic peak may vary depending upon the rate of heating and the calibration and precision of the instrument, with the amount of peak variation dependent upon the heating rate used, all thermograms included herein were run under the same, consistent conditions: heating at 10° C. per minute under a nitrogen purge at 40 mL/minute.
FIG. 8 illustrates a DSC thermogram for the combination of Form A, Form B and Form C having a second heating cycle with a maximum temperature of about 110° C. with a holding time of about 30 minutes. The peaks in the third heating cycle show a Form A to Form B to Form C peak area ratio of approximately 8:2:1, respectively, with the relative amount of Form A, Form B and Form C further variable on the heat of enthalpy of each polymorphic form.

[4] = DSC reheating of disturbed (scratched/stressed) sample: solid state phase transformation to Form A; assay type: physicochemical; conditions: DSC heating from 30° C. to approximately 200° C. at 10° C. per minute
Method: DSC data were generated using a Mettler-Toledo DSC 821^e (Columbus, Ohio) with a Julabo FT900 intercooler chiller (Julabo Company; Allentown, Pa.). In general, samples were analyzed in a vented, sealed aluminum pan. Because the endothermic peak may vary depending upon the rate of heating and the calibration and precision of the instrument, with the amount of peak variation dependent upon the heating rate used, all thermograms included herein were run under the same, consistent conditions: heating at 10° C. per minute under a nitrogen purge at 40 mL/minute. The resultant sample of Example 1A was disturbed with scratching, which caused the cilostazol sample to undergo a solid state phase transformation at approximately 119° C. followed by an endotherm of melt at approximately 160° C. (Form A) during heating by DSC from 30° C. to approximately 200° C. at 10° C. per minute. When the sample is stressed and reheated (as detailed in Example 2A), the sample undergoes a solid state phase transformation at approximately 147° C. followed by an endotherm of melt at about 160° C. (Form A) during heating by DSC from 30° C. to approximately 200° C. at 10° C. per minute. This disturbance of sample is believed to induce nucleation which preferentially causes Form A of cilostazol to form upon heating.

[5] = stability of the crystalline form; assay type: physicochemical

| SMILES | aqueous solubility [1] | bioavailability [2] | solubility relative to Form A, suggested by lower melting point in DSC [3] | temperature of solid state phase transformation to Form A [4] | stability of the polymorphic form [5] |
| --- | --- | --- | --- | --- | --- |
| O=C1CCc2cc(OCCCCc3nnnn3C3CCCCC3)ccc2N1 [Form A, 6-[4-(1-cyclohexyl-1H-tetrazol-5-yl)butoxy]-3,4-dihydro-2(1H)-quinolinone] | low aqueous solubility | low bioavailability | – | – | – |
| O=C1CCc2cc(OCCCCc3nnnn3C3CCCCC3)ccc2N1 [Form B, 6-[4-(1-cyclohexyl-1H-tetrazol-5-yl)butoxy]-3,4-dihydro-2(1H)-quinolinone] | – | – | more soluble than Form A | approximately 119 °C | stable |
| O=C1CCc2cc(OCCCCc3nnnn3C3CCCCC3)ccc2N1 [Form C, 6-[4-(1-cyclohexyl-1H-tetrazol-5-yl)butoxy]-3,4-dihydro-2(1H)-quinolinone] | – | – | more soluble than Form A | approximately 147 °C | stable |

Reference: US6573382B2, “Polymorphic forms of 6-[4-(1-cyclohexyl-1H-tetrazol-5-yl)butoxy]-3,4-dihydro-2(1H)-quinolinone” (priority 2001, dated 2003)
